Assay results as given in patent US10174033B2, “N6-substituted adenosine derivatives and N6-substituted adenine derivatives and uses thereof” (INSTITUTE OF MATERIA MEDICA, CHINESE ACADEMY OF MEDICAL …, priority 2009, dated 2019).

Assays:
[1] = system: mice; experiment: Sub-threshold hypnotic dose sodium pentobarbital induced sleeping test; assay type: in vivo; conditions: intraperitoneal, 30 min before sub-threshold sodium pentobarbital (22 mg/kg ip)
Description: N^6-substituted adenosine derivatives and/or N^6-substituted adenine derivatives potentiated sodium pentobarbital-induced sleep in mice
Name of Experiment: Sub-threshold hypnotic dose sodium pentobarbital induced sleeping test
Method of Experiment: Mice (n=7-10) were pretreated with test compound or vehicle, after 30 min, a maximal sub-threshold hypnotic dose of sodium pentobarbital (22 mg/kg) was given intraperitoneally (ip). (On some condition, the sub-threshold dosage of sodium pentobarbital should be optimized to the maximum dose, at which the rate of sleep onset of vehicle group is less than 10%). […] Following sodium pentobarbital injection, each mouse was observed 15 min for onset of sleep. The percentage of sleep onset was calculated as: (number of animals falling asleep/total number of animals)×100%.

[2] = system: male ICR-mice; experiment: Potentiation of sodium pentobarbital sleeping time test; assay type: in vivo
[3] = intraperitoneal, 1 mg/kg, 38 mg/kg sodium pentobarbital 30 min later
[4] = oral, 5 mg/kg, 38 mg/kg sodium pentobarbital 60 min later
[5] = intraperitoneal, 5 mg/kg, 38 mg/kg sodium pentobarbital 30 min later
[6] = oral, 4 mg/kg, 38 mg/kg sodium pentobarbital 60 min later

Compound	Sleep rate (%) ([1]; 5 mg/kg)	Sleep rate (%) ([1]; 1 mg/kg)	Sleep prolonging rate (%) [2, 4] [%]	Sleep prolonging rate (%) [2, 5] [%]	also measured
OC[C@H]1O[C@@H](n2cnc3c(NCc4ccco4)ncnc32)[C@H](O)[C@@H]1O [Example 17, N^6-(2-furanylmethyl)-adenosine]	71	–	–	–	–
Nc1cccc(CNc2ncnc3c2ncn3[C@@H]2O[C@H](CO)[C@@H](O)[C@H]2O)c1 [Example 7, N^6-(m-aminobenzyl)-adenosine]	–	100	50	–	Sleep prolonging rate (%) [2, 3]: 101%
Cc1ccc(-c2nc3ccc(C)cn3c2CC(=O)N(C)C)cc1 [zolpidem, reference compound]	–	–	–	–	Sleep rate (%) ([1]; 2 mg/kg): 75%
O=[N+]([O-])c1ccccc1CNc1ncnc2c1ncn2[C@@H]1O[C@H](CO)[C@@H](O)[C@H]1O [Example 9, N^6-(o-nitrobenzyl)-adenosine]	–	100	–	–	–
OC[C@H]1O[C@@H](n2cnc3c(NCc4ccc(OC(F)(F)F)cc4)ncnc32)[C@H](O)[C@@H]1O [Example 12, N^6-(p-trifluoromethoxybenzyl)-adenosine]	43	–	–	44	–
COc1ccc(CCNc2ncnc3c2ncn3[C@@H]2O[C@H](CO)[C@@H](O)[C@H]2O)cc1O [Example 40, N^6-[(3-hydroxy-4-methoxyphenyl)-ethyl]-adenosine]	–	50	–	–	Sleep prolonging rate (%) [2, 3]: 1%
OC[C@H]1O[C@@H](n2cnc3c(NCc4ccc(O)c(O)c4)ncnc32)[C@H](O)[C@@H]1O [Example 22, N^6-(3,4-dihydroxybenzyl)-adenosine]	100	87	–	32	Sleep prolonging rate (%) [2, 6]: 74%
COc1ccc(CNc2ncnc3c2ncn3[C@@H]2O[C@H](CO)[C@@H](O)[C@H]2O)cc1OC [Example 30, N^6-(3,4-dimethoxybenzyl)-adenosine]	–	100	–	–	–
OC[C@H]1O[C@@H](n2cnc3c(N4CCN(c5ccccc5)CC4)ncnc32)C(O)C1O (stereo partly shown) [Example 16]	50	–	–	34	–
O=C(O)[C@@H](Cc1ccccc1)Nc1ncnc2c1ncn2[C@@H]1O[C@H](CO)C(O)C1O (stereo partly shown) [Example 103, N-(6-adenosine)-(D)-phenylalanine]	17	–	–	19	–
COc1ccc(CNc2ncnc3c2ncn3[C@@H]2O[C@H](CO)[C@@H](O)[C@H]2O)cc1O [Example 29, N^6-(4-methoxy-3-hydroxybenzyl)-adenosine]	–	86	–	–	–
CC(Nc1ncnc2c1ncn2[C@@H]1O[C@H](CO)[C@@H](O)[C@H]1O)c1ccccc1 (mixture of isomers) [Example 45, N^6-[(±)-1-(phenyl)-ethyl]-adenosine]	100	–	201	254	–
COc1ccccc1CNc1ncnc2c1ncn2[C@@H]1O[C@H](CO)[C@@H](O)[C@H]1O [N^6-(o-methoxybenzyl)-adenosine]	–	100	–	–	–
O=[N+]([O-])c1ccc(CNc2ncnc3c2ncn3[C@@H]2O[C@H](CO)[C@@H](O)[C@H]2O)cc1 [Example 8, N^6-(p-nitrobenzyl)-adenosine]	–	63	29	–	Sleep prolonging rate (%) [2, 3]: 16%
O=C(O)[C@@H](Cc1ccc(O)cc1)Nc1ncnc2c1ncn2[C@@H]1O[C@H](CO)C(O)C1O (stereo partly shown) [Example 106, N-(6-adenosine)-(D)-tyrosine]	17	–	–	82	–
O=C(O)[C@@H](CO)Nc1ncnc2c1ncn2[C@@H]1O[C@H](CO)C(O)C1O (stereo partly shown) [Example 124, N-(6-adenosine)-(L)-serine]	–	–	–	–	Sleep rate (%) ([1]; 5 mg/kg, listed as N-(6-adenosine)-(L)-serine): 29%; Sleep prolonging rate (%) ([2]; intraperitoneal, 5 mg/kg, 38 mg/kg sodium pentobarbital 30 min later, listed as N-(6-adenosine)-(L)-serine): 15%
COc1cc(CNc2ncnc3nc[nH]c23)ccc1O [N^6-(3-methoxy-4-hydroxybenzyl)-adenine]	–	38	–	–	–
OC[C@H]1O[C@@H](n2cnc3c(NCCc4c[nH]c5ccccc45)ncnc32)[C@H](O)[C@@H]1O [Example 44, N^6-[(1H-Indole-3-yl)-ethyl]-adenosine]	86	–	78	147	–
OC[C@H]1O[C@@H](n2cnc3c(NCc4ccc(F)cc4)ncnc32)[C@H](O)[C@@H]1O [Example 11, N^6-(p-fluorobenzyl)-adenosine]	71	–	–	73	–

Compound	Sleep rate (%) ([1]; 5 mg/kg)	Sleep rate (%) ([1]; 1 mg/kg)	Sleep prolonging rate (%) [2, 4] [%]	Sleep prolonging rate (%) [2, 5] [%]	also measured
O=C(O)[C@@H](CO)Nc1ncnc2c1ncn2[C@@H]1O[C@H](CO)C(O)C1O (stereo partly shown) [Example 125, N-(6-adenosine)-(D)-serine]	–	–	–	–	Sleep rate (%) ([1]; 5 mg/kg, listed as N-(6-adenosine)-(D)-serine): 14%; Sleep prolonging rate (%) ([2]; intraperitoneal, 5 mg/kg, 38 mg/kg sodium pentobarbital 30 min later, listed as N-(6-adenosine)-(D)-serine): 0%
COc1cc(CCNc2ncnc3c2ncn3[C@@H]2O[C@H](CO)[C@@H](O)[C@H]2O)ccc1O [Example 39, N^6-[(3-methoxy-4-hydroxyphenyl)-ethyl]-adenosine]	–	88	–	–	Sleep prolonging rate (%) [2, 3]: 13%
O=C(O)[C@@H](Cc1c[nH]c2ccccc12)Nc1ncnc2c1ncn2[C@@H]1O[C@H](CO)C(O)C1O (stereo partly shown) [Example 111, N-(6-adenosine)-(L)-tryptophan]	14	–	–	69	–
OC[C@H]1O[C@@H](n2cnc3c(NCc4ccccc4O)ncnc32)[C@H](O)[C@@H]1O [Example 3, N^6-(o-hydroxybenzyl)-adenosine]	–	88	92	–	–
OC[C@H]1O[C@@H](n2cnc3c(NCc4ccc5c(c4)OCO5)ncnc32)[C@H](O)[C@@H]1O [Example 31, N^6-(3,4-methylenedioxybenzyl)-adenosine]	100	–	–	175	–
O=C(O)C(Cc1c[nH]c2ccc(O)cc12)Nc1ncnc2c1ncn2[C@@H]1O[C@H](CO)C(O)C1O (stereo partly shown) [Example 115, N-(6-adenosine)-5-hydroxy tryptophan]	17	–	–	60	–
CC[C@@H](Nc1ncnc2c1ncn2[C@@H]1O[C@H](COc2ccccc2[N+](=O)[O-])C(O)[C@@H]1O)c1ccccc1 (stereo partly drawn) [Example 85, N^6-[(R)-1-(phenyl)-propyl]-adenosine-5′-o-nitrophenyl ether]	–	–	87	–	–
CCC(Nc1ncnc2c1ncn2[C@@H]1O[C@H](CO)[C@@H](O)[C@H]1O)c1ccccc1 (mixture of isomers) [Example 72, N^6-[(±)-1-(phenyl)-propyl]-adenosine]	–	–	–	–	Sleep prolonging rate (%) ([2]; oral, 2.5 mg/kg, 38 mg/kg sodium pentobarbital 60 min later): 135%
CC(Nc1ncnc2c1ncn2[C@@H]1O[C@H](CO)[C@@H](O)[C@H]1O)c1ccc(O)cc1 (mixture of isomers) [Example 47, N^6-[(±)-1-(4-hydroxyphenyl)-ethyl]-adenosine]	–	–	50	–	–
COc1cc(C(C)Nc2ncnc3c2ncn3[C@H]2C[C@H](O)[C@@H](CO)O2)cc(OC)c1OC (mixture of isomers) [Example 157, N^6-[(±)-1-(3,4,5-trimethoxyphenyl)-ethyl]-2′-deoxy-adenosine]	–	–	9	–	–
OC[C@H]1O[C@@H](n2cnc3c(NCCc4c[nH]cn4)ncnc32)[C@H](O)[C@@H]1O [Example 43, N^6-[(1H-imidazole-4-yl)-ethyl]-adenosine]	–	88	–	–	Sleep prolonging rate (%) [2, 3]: 43%
COc1cccc([C@H](C)Nc2ncnc3c2ncn3[C@@H]2O[C@H](CO)[C@@H](O)[C@H]2O)c1 [Example 66, N^6-[(S)-1-(3-methoxyphenyl)-ethyl]-adenosine]	–	–	39	–	–
OC[C@H]1O[C@@H](n2cnc3c(NCCc4ccc(O)c(O)c4)ncnc32)C(O)C1O (stereo partly shown) [Example 38]	–	–	69	–	Sleep prolonging rate (%) [2, 3]: 98%
CCOC(=O)[C@@H](Cc1ccc(O)cc1)Nc1ncnc2c1ncn2[C@@H]1O[C@H](CO)C(O)C1O (stereo partly shown) [Example 108, N-(6-adenosine)-(D)-tyrosine ethyl ester]	–	–	32	–	–
COc1cc(C(C)Nc2ncnc3c2ncn3[C@@H]2O[C@H](CO)[C@@H](O)[C@H]2O)ccc1O (mixture of isomers) [Example 50, N^6-[(±)-1-(3-methoxy-4-hydroxy-phenyl)-ethyl]-adenosine]	–	–	119	–	–
CCOC(=O)[C@@H](Cc1c[nH]c2ccccc12)Nc1ncnc2c1ncn2[C@@H]1O[C@H](CO)C(O)C1O (stereo partly shown) [Example 114, N-(6-adenosine)-(D)-tryptophan ethyl ester]	–	–	16	–	–
COc1cc(CNc2ncnc3c2ncn3[C@@H]2O[C@H](CO)C(O)C2O)cc(OC)c1O (stereo partly shown) [Example 36, N^6-(4-hydroxy-3,5-dimethxoybenzyl)-adenosine]	86	–	121	336	–
COc1cc(CNc2ncnc3c2ncn3[C@@H]2O[C@H](CO)[C@@H](O)[C@H]2O)ccc1O [Example 23, N^6-(3-methoxy-4-hydroxybenzyl)-adenosine]	–	100	–	–	Sleep prolonging rate (%) [2, 6]: 87%
CCCCCCCC(=O)OC[C@H]1O[C@@H](n2cnc3c(NC(C)c4cc(OC)c(OC)c(OC)c4)ncnc32)[C@H](O)[C@@H]1O (mixture of isomers) [Example 53, N^6-[(±)-1-(3,4,5-trimethoxyphenyl)-ethyl]-adenosine-5′-caprylate]	–	–	130	–	–
